Experimental data published in PubChem BioAssay (NCI).
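Protocol summary: plate cells (96-well), add compound at 5 concentrations, incubate 48 h, interpolate endpoints linearly. The concentration for 50% growth inhibition is given as GI50. TGI marks complete inhibition of growth.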

Legend:
Assay in all cases: DTP human tumour cell line panel, 48 h
SK-MEL-5 melanoma = test system: SK-MEL-5 melanoma
HCT-116 colon = test system: HCT-116 colon
LOX IMVI melanoma = test system: LOX IMVI melanoma
UO-31 renal = test system: UO-31 renal
SF-295 CNS = test system: SF-295 CNS
RXF 393 renal = test system: RXF 393 renal
HCC-2998 colon = test system: HCC-2998 colon
DU-145 prostate = test system: DU-145 prostate
UACC-62 melanoma = test system: UACC-62 melanoma
NCI-H460 lung = test system: NCI-H460 lung
MDA-MB-435 = test system: MDA-MB-435
A549 NSCLC = test system: A549 NSCLC
UACC-257 melanoma = test system: UACC-257 melanoma
SN12C renal = test system: SN12C renal
ACHN renal = test system: ACHN renal
OVCAR-3 ovarian = test system: OVCAR-3 ovarian
IGROV1 ovarian = test system: IGROV1 ovarian
NCI/ADR-RES ovarian = test system: NCI/ADR-RES ovarian
HL-60(TB) leukemia = test system: HL-60(TB) leukemia
EKVX NSCLC = test system: EKVX NSCLC
K-562 leukemia = test system: K-562 leukemia
MALME-3M melanoma = test system: MALME-3M melanoma
OVCAR-5 ovarian = test system: OVCAR-5 ovarian
CCRF-CEM leukemia = test system: CCRF-CEM leukemia
SNB-75 CNS = test system: SNB-75 CNS
SK-OV-3 ovarian = test system: SK-OV-3 ovarian
HCT-15 colon = test system: HCT-15 colon
PC-3 prostate = test system: PC-3 prostate
SK-MEL-2 melanoma = test system: SK-MEL-2 melanoma
COLO 205 colon = test system: COLO 205 colon
NCI-H522 lung = test system: NCI-H522 lung
HT29 colon = test system: HT29 colon
SNB-19 CNS = test system: SNB-19 CNS
OVCAR-8 ovarian = test system: OVCAR-8 ovarian
BT-549 breast = test system: BT-549 breast
SW-620 colon = test system: SW-620 colon
SF-268 CNS = test system: SF-268 CNS
786-0 renal = test system: 786-0 renal
NCI-H23 lung = test system: NCI-H23 lung
OVCAR-4 ovarian = test system: OVCAR-4 ovarian
SF-539 CNS = test system: SF-539 CNS
NCI-H226 lung = test system: NCI-H226 lung
T-47D breast = test system: T-47D breast
RPMI-8226 leukemia = test system: RPMI-8226 leukemia
HOP-92 NSCLC = test system: HOP-92 NSCLC
U251 CNS = test system: U251 CNS
KM12 colon = test system: KM12 colon
HOP-62 NSCLC = test system: HOP-62 NSCLC
SK-MEL-28 melanoma = test system: SK-MEL-28 melanoma
HS 578T breast = test system: HS 578T breast
M14 melanoma = test system: M14 melanoma
A498 renal = test system: A498 renal
MDA-MB-231 breast = test system: MDA-MB-231 breast
TK-10 renal = test system: TK-10 renal
MCF7 breast = test system: MCF7 breast

Compound: Cn1c2c(c3ccc(-c4ccn[nH]4)cc3c1=O)C(=O)c1ccccc1-2
- GI50 (SK-MEL-5 melanoma): 1.76 µM
- TGI (SK-MEL-5 melanoma): 5.68 µM
- GI50 (HCT-116 colon): 1.52 µM
- TGI (HCT-116 colon): 19 µM
- GI50 (LOX IMVI melanoma): 1.06 µM
- TGI (LOX IMVI melanoma): 4.78 µM
- GI50 (UO-31 renal): 1.5 µM
- TGI (UO-31 renal): > 100 µM
- GI50 (SF-295 CNS): 3.81 µM
- TGI (SF-295 CNS): > 100 µM
- GI50 (RXF 393 renal): 3.61 µM
- TGI (RXF 393 renal): > 100 µM
- GI50 (HCC-2998 colon): 11.6 µM
- TGI (HCC-2998 colon): > 100 µM
- GI50 (DU-145 prostate): 1.71 µM
- TGI (DU-145 prostate): > 100 µM
- GI50 (UACC-62 melanoma): 3.1 µM
- TGI (UACC-62 melanoma): > 100 µM
- GI50 (NCI-H460 lung): 0.494 µM
- TGI (NCI-H460 lung): 3.37 µM
- GI50 (MDA-MB-435): 7.51 µM
- TGI (MDA-MB-435): > 100 µM
- GI50 (A549 NSCLC): 1.03 µM
- TGI (A549 NSCLC): 3.04 µM
- GI50 (UACC-257 melanoma): 7.79 µM
- TGI (UACC-257 melanoma): > 100 µM
- GI50 (SN12C renal): 2.1 µM
- TGI (SN12C renal): 8.86 µM
- GI50 (ACHN renal): 1.34 µM
- TGI (ACHN renal): 5.78 µM
- GI50 (OVCAR-3 ovarian): 5.97 µM
- TGI (OVCAR-3 ovarian): 76.3 µM
- GI50 (IGROV1 ovarian): 2.18 µM
- TGI (IGROV1 ovarian): > 100 µM
- GI50 (NCI/ADR-RES ovarian): 3.78 µM
- TGI (NCI/ADR-RES ovarian): > 100 µM
- GI50 (HL-60(TB) leukemia): 0.813 µM
- TGI (HL-60(TB) leukemia): 5.53 µM
- GI50 (EKVX NSCLC): 2.95 µM
- TGI (EKVX NSCLC): > 100 µM
- GI50 (K-562 leukemia): 2.17 µM
- TGI (K-562 leukemia): > 100 µM
- GI50 (MALME-3M melanoma): 4.21 µM
- TGI (MALME-3M melanoma): > 100 µM
- GI50 (OVCAR-5 ovarian): 5.08 µM
- TGI (OVCAR-5 ovarian): > 100 µM
- GI50 (CCRF-CEM leukemia): 0.832 µM
- TGI (CCRF-CEM leukemia): > 100 µM
- GI50 (SNB-75 CNS): 6.18 µM
- TGI (SNB-75 CNS): > 100 µM
- GI50 (SK-OV-3 ovarian): 5.21 µM
- TGI (SK-OV-3 ovarian): > 100 µM
- GI50 (HCT-15 colon): 1.51 µM
- TGI (HCT-15 colon): > 100 µM
- GI50 (PC-3 prostate): 4.28 µM
- TGI (PC-3 prostate): > 100 µM
- GI50 (SK-MEL-2 melanoma): > 100 µM
- TGI (SK-MEL-2 melanoma): > 100 µM
- GI50 (COLO 205 colon): 5.51 µM
- TGI (COLO 205 colon): > 100 µM
- GI50 (NCI-H522 lung): 2.22 µM
- TGI (NCI-H522 lung): 23.8 µM
- GI50 (HT29 colon): 1.52 µM
- TGI (HT29 colon): 4.85 µM
- GI50 (SNB-19 CNS): 2.71 µM
- TGI (SNB-19 CNS): 17.3 µM
- GI50 (OVCAR-8 ovarian): 1.78 µM
- TGI (OVCAR-8 ovarian): 34.6 µM
- GI50 (BT-549 breast): 2.29 µM
- TGI (BT-549 breast): 8.78 µM
- GI50 (SW-620 colon): 2.15 µM
- TGI (SW-620 colon): > 100 µM
- GI50 (SF-268 CNS): 3.21 µM
- TGI (SF-268 CNS): > 100 µM
- GI50 (786-0 renal): 1.49 µM
- TGI (786-0 renal): 4.46 µM
- GI50 (NCI-H23 lung): 2.64 µM
- TGI (NCI-H23 lung): > 100 µM
- GI50 (OVCAR-4 ovarian): 7.65 µM
- TGI (OVCAR-4 ovarian): > 100 µM
- GI50 (SF-539 CNS): 2.28 µM
- TGI (SF-539 CNS): 11.4 µM
- GI50 (NCI-H226 lung): 1.83 µM
- TGI (NCI-H226 lung): 5.39 µM
- GI50 (T-47D breast): 2.86 µM
- TGI (T-47D breast): > 100 µM
- GI50 (RPMI-8226 leukemia): 1.77 µM
- TGI (RPMI-8226 leukemia): 4.79 µM
- GI50 (HOP-92 NSCLC): 2.84 µM
- TGI (HOP-92 NSCLC): 9.93 µM
- GI50 (U251 CNS): 1.66 µM
- TGI (U251 CNS): 10.5 µM
- GI50 (KM12 colon): 2.34 µM
- TGI (KM12 colon): > 100 µM
- GI50 (HOP-62 NSCLC): 1.92 µM
- TGI (HOP-62 NSCLC): 9.89 µM
- GI50 (SK-MEL-28 melanoma): 42.5 µM
- TGI (SK-MEL-28 melanoma): > 100 µM
- GI50 (HS 578T breast): 6.84 µM
- TGI (HS 578T breast): > 100 µM
- GI50 (M14 melanoma): 3.6 µM
- TGI (M14 melanoma): > 100 µM
- GI50 (A498 renal): 6.44 µM
- TGI (A498 renal): > 100 µM
- GI50 (MDA-MB-231 breast): 4.46 µM
- TGI (MDA-MB-231 breast): 64.7 µM
- GI50 (TK-10 renal): 4.02 µM
- TGI (TK-10 renal): 68.6 µM
- GI50 (MCF7 breast): 0.408 µM
- TGI (MCF7 breast): > 100 µM
